Paper PMC8035258 (ChemMedChem, 2021)

target: Mitochondrial respiratory complex II (Mus musculus, UniProt Q8K2B3+Q9CQA3+Q9CXV1+Q9CZB0); assay: Complex II inhibition assay; format: biochemical; conditions: 100 μM; mouse liver mitochondria; mean ±SD of n = 4
Sequence (Q8K2B3 43-664): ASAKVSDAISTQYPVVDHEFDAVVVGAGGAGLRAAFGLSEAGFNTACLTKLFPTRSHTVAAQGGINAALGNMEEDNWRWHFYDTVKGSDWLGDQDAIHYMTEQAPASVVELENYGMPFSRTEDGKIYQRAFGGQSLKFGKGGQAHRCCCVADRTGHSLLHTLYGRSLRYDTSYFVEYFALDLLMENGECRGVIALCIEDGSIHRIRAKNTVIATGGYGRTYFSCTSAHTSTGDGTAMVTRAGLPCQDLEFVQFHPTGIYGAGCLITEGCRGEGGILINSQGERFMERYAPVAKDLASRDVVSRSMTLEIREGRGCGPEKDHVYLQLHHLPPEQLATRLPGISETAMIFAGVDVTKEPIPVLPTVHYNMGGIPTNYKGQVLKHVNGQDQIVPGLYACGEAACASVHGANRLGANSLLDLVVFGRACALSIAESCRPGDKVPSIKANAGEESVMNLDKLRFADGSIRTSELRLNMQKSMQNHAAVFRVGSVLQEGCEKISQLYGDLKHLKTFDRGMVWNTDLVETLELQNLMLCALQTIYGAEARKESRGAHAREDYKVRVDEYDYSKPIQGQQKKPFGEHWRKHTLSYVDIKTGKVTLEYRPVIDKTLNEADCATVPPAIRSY
Sequence (Q9CQA3 31-282): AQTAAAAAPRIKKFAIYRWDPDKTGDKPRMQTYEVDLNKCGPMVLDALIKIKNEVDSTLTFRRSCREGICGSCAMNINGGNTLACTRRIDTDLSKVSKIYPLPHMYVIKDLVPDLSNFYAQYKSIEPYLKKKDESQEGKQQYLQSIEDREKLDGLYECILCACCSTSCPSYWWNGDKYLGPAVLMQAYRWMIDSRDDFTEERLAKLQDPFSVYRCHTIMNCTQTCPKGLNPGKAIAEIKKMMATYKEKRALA
Sequence (Q9CZB0 30-169): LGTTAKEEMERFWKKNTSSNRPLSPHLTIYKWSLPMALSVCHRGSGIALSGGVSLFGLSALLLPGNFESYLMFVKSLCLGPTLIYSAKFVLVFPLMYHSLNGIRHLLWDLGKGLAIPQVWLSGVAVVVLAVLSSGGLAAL
Sequence (Q9CXV1 57-159): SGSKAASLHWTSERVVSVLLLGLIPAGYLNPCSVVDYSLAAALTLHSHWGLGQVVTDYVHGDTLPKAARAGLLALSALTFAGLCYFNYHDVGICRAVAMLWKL

Row | Structure (SMILES) | % Inhibition CII (100 μM)
1 | O=S1(=O)N=C(NCc2ccc(Cl)cc2)Nc2ccccc21 [Compound 16d, 3-((4-Chlorobenzyl)amino)-4H-benzo[e][1,2,4]thiadiazine 1,1-dioxide] | inactive

same assay, conditions: read-out: % Inhibition CII (100 μM), 100 μM; mouse liver mitochondria; mean ±SD of n = 4

Row | Structure (SMILES) | inhibition at 100 µM
2 | CSC1=NS(=O)(=O)c2cc(F)ccc2N1C [Compound 42a, 7-Fluoro-4-methyl-3-(methylthio)-4H-benzo[e][1,2,4]thiadiazine 1,1-dioxide] | 6 ± 13.4%
3 | CCNC1=NS(=O)(=O)c2cc(Br)ccc2N1 [Compound 19c, 7-Bromo-3-(ethylamino)-4H-benzo[e][1,2,4]thiadiazine 1,1-dioxide] | 11 ± 6.9%
4 | COc1ccc(CNC2=NS(=O)(=O)c3ccccc3N2)cc1 [Compound 20d, 3-((4-Methoxybenzyl)amino)-4H-benzo[e][1,2,4]thiadiazine 1,1-dioxide] | 0%
5 | C=CCNC1=NS(=O)(=O)c2ccccc2N1 [Compound 32d, 3-(Allylamino)-4H-benzo[e][1,2,4]thiadiazine 1,1-dioxide] | 2 ± 12.3%
6 | CC(C)NC1=NS(=O)(=O)c2ccc(Cl)cc2N1 [Compound 14b, 6-Chloro-3-isopropylamino-4H-1,2,4-benzothiadiazine 1,1-dioxide] | 0%
7 | O=S1(=O)N=C(NCc2ccc(F)cc2)Nc2cc(Cl)ccc21 [Compound 17b, 6-Chloro-3-((4-fluorobenzyl)amino)-4H-benzo[e][1,2,4]thiadiazine 1,1-dioxide] | 0%
8 | CC(C)NC1=NS(=O)(=O)c2ccccc2N1C [Compound 43d, 3-(Isopropylamino)-4-methyl-4H-benzo[e][1,2,4]thiadiazine 1,1-dioxide] | 0%
9 | CC(C)NC1=NS(=O)(=O)c2cc(F)ccc2N1 [Compound 14a, 7-Fluoro-3-isopropylamino-4H-1,2,4-benzothiadiazine 1,1-dioxide] | 4 ± 6.9%
10 | O=C1Nc2ccc(Br)cc2S(=O)(=O)N1 [Compound 11c, 7-Bromo-3-oxo-3,4-dihydro-2H-1,2,4-benzothiadiazine1,1-dioxide] | 0%
11 | COc1ccccc1CNC1=NS(=O)(=O)c2ccc(Cl)cc2N1 [Compound 26b, 6-Chloro-3-((2-methoxybenzyl)amino)-4H-benzo[e][1,2,4]thiadiazine 1,1-dioxide] | 0%
12 | O=S1(=O)N=C(NCc2ccc(SC(F)(F)F)cc2)Nc2ccc(F)cc21 [Compound 38a, 7-Fluoro-3-((4-((trifluoromethyl)thio)benzyl)amino)-4H-benzo[e] [1,2,4]thiadiazine 1,1-dioxide] | 23 ± 12.3%
13 | O=S1(=O)N=C(NCc2ccc(F)cc2)Nc2ccccc21 [Compound 17d, 3-((4-Fluorobenzyl)amino)-4H-benzo[e][1,2,4]thiadiazine 1,1-dioxide] | 7 ± 9.9%
14 | CC(C)C(C)NC1=NS(=O)(=O)c2ccccc2N1 (centres unmarked) [Compound 15d, 3-((3-Methylbutan-2-yl)amino)-4H-benzo[e][1,2,4]thiadiazine 1,1-dioxide] | 0%
15 | Cc1ccc(CNC2=NS(=O)(=O)c3cc(F)ccc3N2)cc1 [Compound 27a, 7-Fluoro-3-((4-methylbenzyl)amino)-4H-benzo[e][1,2,4]thiadiazine 1,1-dioxide] | 23 ± 9.9%
16 | O=S1(=O)N=C(NCc2ccc(Cl)cc2)Nc2ccccc21 [Compound 16d, 3-((4-Chlorobenzyl)amino)-4H-benzo[e][1,2,4]thiadiazine 1,1-dioxide] | 0%
17 | O=C1Nc2ccc(F)cc2S(=O)(=O)N1 [Compound 11a, 7-Fluoro-3-oxo-3,4-dihydro-2H-1,2,4-benzothiadiazine 1,1-dioxide] | 6 ± 1.5%
18 | CSC1=NS(=O)(=O)c2cc(F)ccc2N1 [Compound 13a, 7-Fluoro-3-methylsulfanyl-4H-1,2,4-benzothiadiazine 1,1-dioxide] | 0%
19 | CCNC1=NS(=O)(=O)c2ccccc2N1 [Compound 19d, 3-(Ethylamino)-4H-benzo[e][1,2,4]thiadiazine 1,1-dioxide] | 0%
20 | O=S1(=O)N=C(NCc2ccc(F)cc2)Nc2ccc(Br)cc21 [Compound 17c, 7-Bromo-3-((4-fluorobenzyl)amino)-4H-benzo[e][1,2,4]thiadiazine 1,1-dioxide] | 35 ± 9.9%
21 | O=S1(=O)N=C(NCc2ccc(OC(F)(F)F)cc2)Nc2ccc(F)cc21 [Compound 30a, 7-Fluoro-3-((4-(trifluoromethoxy)benzyl)amino)-4H-benzo[e][1,2,4] thiadiazine 1,1-dioxide] | 2 ± 6.9%
22 | COc1ccc(CNC2=NS(=O)(=O)c3cc(F)ccc3N2)cc1 [Compound 20a, 7-Fluoro-3-((4-methoxybenzyl)amino)-4H-benzo[e][1,2,4]thiadiazine 1,1-dioxide] | 0%
23 | C=CCNC1=NS(=O)(=O)c2ccc(Cl)cc2N1 [Compound 32b, 3-(Allylamino)-6-chloro-4H-benzo[e][1,2,4]thiadiazine 1,1-dioxide] | 0%
24 | O=S1(=O)NC(=S)Nc2ccccc21 [Compound 12d, 2H-benzo[e][1,2,4]thiadiazine-3(4H)-thione 1,1-dioxide] | 2 ± 5.8%

Row | Structure (SMILES) | inhibition at 100 µM
25 | CC(C)NC1=NS(=O)(=O)c2ccccc2N1 [Compound 14d, 3-(Isopropylamino)-4H-benzo[e][1,2,4]thiadiazine 1,1-dioxide] | 0%
26 | Nc1ccc(CNC2=NS(=O)(=O)c3cc(Br)ccc3N2)cc1 [Compound 31c, 3-((4-Aminobenzyl)amino)-7-bromo-4H-benzo[e][1,2,4]thiadiazine 1,1-dioxide] | 9 ± 6%
27 | O=S1(=O)NC(=S)Nc2ccc(F)cc21 [Compound 12a, 7-Fluoro-3-thioxo-3,4-dihydro-2H-1,2,4-benzothiadiazine 1,1-dioxide] | 0%
28 | O=S1(=O)N=C(NCc2ccccc2)Nc2ccccc21 [Compound 21d, 3-(Benzylamino)-4H-benzo[e][1,2,4]thiadiazine 1,1-dioxide] | 0%
29 | O=S1(=O)N=C(NCc2ccccc2C(F)(F)F)Nc2ccc(Br)cc21 [Compound 35c, 7-Bromo-3-((2-(trifluoromethyl)benzyl)amino)-4H-benzo[e][1,2,4]thiadiazine 1,1-dioxide] | 29 ± 5.9%
30 | CSC1=NS(=O)(=O)c2cc(Br)ccc2N1 [Compound 13c, 7-Bromo-3-methylsulfanyl-4H-1,2,4-benzothiadiazine 1,1-dioxide] | 10 ± 2.7%
31 | CC(C)NC1=NS(=O)(=O)c2cc(Br)ccc2N1 [Compound 14c, 7-Bromo-3-isopropylamino-4H-1,2,4-benzothiadiazine 1,1-dioxide] | 0%
32 | Cc1ccc(CNC2=NS(=O)(=O)c3cc(Br)ccc3N2)cc1 [Compound 27c, 7-Bromo-3-((4-methylbenzyl)amino)-4H-benzo[e][1,2,4]thiadiazine 1,1-dioxide] | 29 ± 6.2%
33 | O=S1(=O)N=C(NCCc2ccccc2)Nc2ccc(F)cc21 [Compound 18a, 7-Fluoro-3-(phenethylamino)-4H-benzo[e][1,2,4]thiadiazine 1,1-dioxide] | 4 ± 15.5%
34 | O=S1(=O)N=C(NC2CCCC2)Nc2ccc(Br)cc21 [Compound 22c, 7-Bromo-3-(cyclopentylamino)-4H-benzo[e][1,2,4]thiadiazine 1,1-dioxide] | 25 ± 7.8%
35 | CSC1=NS(=O)(=O)c2ccc(Cl)cc2N1 [Compound 13b, 6-Chloro-3-methylsulfanyl-4H-1,2,4-benzothiadiazine 1,1-dioxide] | 24 ± 0.7%
36 | COc1ccc(CCNC2=NS(=O)(=O)c3cc(Br)ccc3N2)cc1 [Compound 34c, 7-Bromo-3-((4-methoxyphenethyl)amino)-4H-benzo[e][1,2,4]thiadiazine 1,1-dioxide] | 17 ± 3.3%
37 | COc1cccc(CNC2=NS(=O)(=O)c3cc(Br)ccc3N2)c1 [Compound 28c, 7-Bromo-3-((3-methoxybenzyl)amino)-4H-benzo[e][1,2,4]thiadiazine 1,1-dioxide] | 24 ± 5.2%
38 | O=S1(=O)N=C(NCCc2ccc(Cl)cc2)Nc2ccc(F)cc21 [Compound 37a, 3-((4-Chlorophenethyl)amino)-7-fluoro-4H-benzo[e][1,2,4]thiadiazine 1,1-dioxide] | 34 ± 18.4%
39 | O=S1(=O)N=C(NCc2ccccc2)Nc2ccc(Br)cc21 [Compound 21c, 3-(Benzylamino)-7-bromo-4H-benzo[e][1,2,4]thiadiazine 1,1-dioxide] | 36 ± 9%
40 | O=S1(=O)N=C(NCCc2cccc(C(F)(F)F)c2)Nc2ccc(F)cc21 [Compound 41a, 7-Fluoro-3-((3-(trifluoromethyl)phenethyl)amino)-4H-benzo[e][1,2,4] thiadiazine 1,1-dioxide] | 20 ± 5.2%
41 | CSC1=NS(=O)(=O)c2ccccc2N1C [Compound 42d, 4-Methyl-3-(methylthio)-4H-benzo[e][1,2,4]thiadiazine 1,1-dioxide] | 0%
42 | O=S1(=O)N=C(NCc2ccc(C(F)(F)F)cc2)Nc2ccc(F)cc21 [Compound 25a, 7-Fluoro-3-((4-(trifluoromethyl)benzyl)amino)-4H-benzo[e][1,2,4]thiadiazine 1,1-dioxide] | 6 ± 15.7%
43 | CC(C)C(C)NC1=NS(=O)(=O)c2cc(F)ccc2N1 (centres unmarked) [Compound 15a, 7-Fluoro-3-((3-methylbutan-2-yl)amino)-4H-benzo[e][1,2,4]thiadiazine 1,1-dioxide] | 5 ± 4.5%
44 | O=S1(=O)N=C(NCc2ccc(F)cc2)Nc2ccc(F)cc21 [Compound 17a, 7-Fluoro-3-((4-fluorobenzyl)amino)-4H-benzo[e][1,2,4]thiadiazine 1,1-dioxide] | 1 ± 6.2%
45 | O=S1(=O)N=C(NC2CCCC2)Nc2ccc(F)cc21 [Compound 22a, 7-Fluoro-3-(cyclopentylamino)-4H-benzo[e][1,2,4]thiadiazine 1,1-dioxide] | 1 ± 4.7%
46 | CCNC1=NS(=O)(=O)c2cc(F)ccc2N1 [Compound 19a, 3-(Ethylamino)-7-fluoro-4H-benzo[e][1,2,4]thiadiazine 1,1-dioxide] | 0%
47 | O=S1(=O)N=C(NCc2ccccc2)Nc2ccc(F)cc21 [Compound 21a, 3-(Benzylamino)-7-fluoro-4H-benzo[e][1,2,4]thiadiazine 1,1-dioxide] | 0%
